According to PubChem BioAssay (NCI):
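Each compound was tested at five concentrations against cells in 96-well plates for 48 hours. Abbreviation: GI50, concentration required for 50% inhibition of growth. TGI denotes the concentration required for complete inhibition of growth.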

Tests used:
Assay in all cases: inhibition of tumour cell growth, NCI panel, 48 h
KM12 colon = test system: KM12 colon
A549 NSCLC = test system: A549 NSCLC
HS 578T breast = test system: HS 578T breast
EKVX NSCLC = test system: EKVX NSCLC
SK-MEL-5 melanoma = test system: SK-MEL-5 melanoma
SF-539 CNS = test system: SF-539 CNS
LOX IMVI melanoma = test system: LOX IMVI melanoma
ACHN renal = test system: ACHN renal

## N#Cc1c(NC(=O)c2ccc(F)cc2)sc2c1CCCC2
KM12 colon
  GI50: > 25 µM
  TGI: > 25 µM
A549 NSCLC
  GI50: > 25 µM
  TGI: > 25 µM
HS 578T breast
  GI50: > 25 µM
  TGI: > 25 µM
EKVX NSCLC
  GI50: > 25 µM
  TGI: > 25 µM
SK-MEL-5 melanoma
  GI50: > 25 µM
  TGI: > 25 µM
SF-539 CNS
  GI50: > 25 µM
  TGI: > 25 µM
LOX IMVI melanoma
  GI50: > 25 µM
  TGI: > 25 µM
ACHN renal
  GI50: > 25 µM
  TGI: > 25 µM

## COc1ccc2c3c1OC1C(OC)(OC)C=C[C@@]4(Br)[C@@H](C2)N(CC2CC2)CC[C@]314 (stereo partly drawn)
KM12 colon
  TGI: > 100 µM
A549 NSCLC
  TGI: > 100 µM
HS 578T breast
  TGI: > 100 µM
EKVX NSCLC
  TGI: > 100 µM
SK-MEL-5 melanoma
  TGI: > 100 µM
SF-539 CNS
  TGI: > 100 µM
LOX IMVI melanoma
  TGI: > 100 µM
ACHN renal
  TGI: > 100 µM

## N#CC(C#N)=C1CCOc2ccc(F)cc21
KM12 colon
  GI50: 49.7 µM
  TGI: > 100 µM
A549 NSCLC
  GI50: 26 µM
  TGI: > 100 µM
HS 578T breast
  GI50: 0.289 µM
  TGI: 41.6 µM
EKVX NSCLC
  TGI: 9.3 µM
SK-MEL-5 melanoma
  GI50: 33.2 µM
  TGI: > 100 µM
SF-539 CNS
  GI50: 12.4 µM
  TGI: 24.9 µM
LOX IMVI melanoma
  GI50: 11.7 µM
  TGI: 23.9 µM
ACHN renal
  GI50: 13.3 µM
  TGI: 26 µM

## Cc1cc(N2CCCCC2)nc(NC2CCCC(Nc3ccnc4cc(Cl)ccc34)C2)n1 (stereo not drawn)
KM12 colon
  GI50: 1.79 µM
  TGI: 3.52 µM
HS 578T breast
  GI50: 1.55 µM
  TGI: 3.95 µM
EKVX NSCLC
  GI50: 1.54 µM
  TGI: 3.54 µM
SK-MEL-5 melanoma
  GI50: 1.64 µM
  TGI: 3 µM
ACHN renal
  GI50: 1.54 µM
  TGI: 2.98 µM

## COc1cc(-c2nc3sc(C)cn3c2/C=C2\C(=O)Nc3ccccc32)c(Br)c(OC)c1OC
KM12 colon
  GI50: 17.5 µM
  TGI: 49.5 µM
A549 NSCLC
  GI50: 44 µM
  TGI: > 100 µM
HS 578T breast
  GI50: 31.5 µM
  TGI: 74.6 µM
EKVX NSCLC
  GI50: 39.3 µM
  TGI: > 100 µM
SK-MEL-5 melanoma
  GI50: 19.5 µM
  TGI: 43.2 µM
SF-539 CNS
  GI50: 19.2 µM
  TGI: 38.3 µM
LOX IMVI melanoma
  GI50: 30.3 µM
  TGI: > 100 µM
ACHN renal
  GI50: 32.1 µM
  TGI: > 100 µM

## COc1cc(CNCCN2C(=O)c3ccc4c5c(ccc(c35)C2=O)C(=O)N(CCNCc2cc(OC)c(OC)c(OC)c2)C4=O)cc(OC)c1OC
SF-539 CNS
  GI50: 0.4 µM
  TGI: 1.11 µM
LOX IMVI melanoma
  GI50: 0.142 µM
  TGI: 0.421 µM
ACHN renal
  GI50: 0.487 µM
  TGI: 1.12 µM

## CCCCNS(=O)(=O)c1n[nH]c(=O)[nH]c1=O
KM12 colon
  TGI: > 100 µM
A549 NSCLC
  TGI: > 100 µM
HS 578T breast
  TGI: > 100 µM
EKVX NSCLC
  TGI: > 100 µM
SK-MEL-5 melanoma
  TGI: > 100 µM
SF-539 CNS
  TGI: > 100 µM
LOX IMVI melanoma
  TGI: > 100 µM
ACHN renal
  TGI: > 100 µM

## CC(=O)CC/C=C(\C)[C@H](O)[C@H](C)C(=O)O[C@H]1C[C@H](C)C=C2C=C[C@@]3(C)O[C@@H](O)CC(=O)[C@]3(C)[C@H]21
KM12 colon
  GI50: 0.308 µM
  TGI: 2.54 µM
A549 NSCLC
  GI50: 1.24 µM
  TGI: 9.17 µM
HS 578T breast
  GI50: 0.492 µM
  TGI: 4.48 µM
EKVX NSCLC
  GI50: 0.877 µM
  TGI: 4.64 µM
SK-MEL-5 melanoma
  GI50: 0.598 µM
  TGI: 2.08 µM
SF-539 CNS
  GI50: 0.366 µM
  TGI: 2.37 µM
LOX IMVI melanoma
  GI50: 0.279 µM
  TGI: 1.69 µM
ACHN renal
  GI50: 0.339 µM
  TGI: 2 µM

## COc1ccc(CCN(CC(=O)N(CC(N)=O)C2CCC[C@@H]2OCc2ccccc2)C(=O)CN(C(=O)CN(CCc2ccc(Cl)cc2)C(=O)CN(C(=O)CN(C)Cc2ccccc2F)[C@H](C)C2CCCCC2)[C@H](C)C2CCCCC2)cc1OC (stereo partly drawn)
KM12 colon
  GI50: 1.58 µM
  TGI: > 50 µM
A549 NSCLC
  GI50: 1.59 µM
  TGI: > 50 µM
HS 578T breast
  GI50: 7.26 µM
  TGI: > 50 µM
EKVX NSCLC
  GI50: 2.85 µM
  TGI: > 50 µM
SK-MEL-5 melanoma
  GI50: 1.7 µM
  TGI: 8.62 µM
SF-539 CNS
  GI50: 1.43 µM
  TGI: 4.54 µM
LOX IMVI melanoma
  GI50: 1.08 µM
  TGI: 2.77 µM
ACHN renal
  GI50: 2.05 µM
  TGI: > 50 µM

## O=C1C(=C([O-])c2ccccc2)C(=O)c2ccccc21.O=C1C(=C([O-])c2ccccc2)C(=O)c2ccccc21.[Mn+2]
KM12 colon
  GI50: 72.9 µM
  TGI: > 100 µM
A549 NSCLC
  GI50: > 100 µM
  TGI: > 100 µM
EKVX NSCLC
  GI50: > 100 µM
  TGI: > 100 µM
SK-MEL-5 melanoma
  GI50: 16.1 µM
  TGI: > 100 µM
SF-539 CNS
  GI50: > 100 µM
  TGI: > 100 µM
LOX IMVI melanoma
  GI50: > 100 µM
  TGI: > 100 µM

## NC(=S)N/N=C1\c2ccccc2-c2c(F)c(F)c(F)c(F)c21
KM12 colon
  GI50: 5.88 µM
  TGI: 16.3 µM
A549 NSCLC
  GI50: 16.7 µM
  TGI: > 58.4 µM
HS 578T breast
  GI50: 6.25 µM
  TGI: 39.5 µM
EKVX NSCLC
  GI50: 25.4 µM
  TGI: > 100 µM
SK-MEL-5 melanoma
  GI50: 17.1 µM
  TGI: > 50.4 µM
SF-539 CNS
  GI50: 5.39 µM
  TGI: 12.8 µM
LOX IMVI melanoma
  GI50: 2.34 µM
  TGI: 7.64 µM
ACHN renal
  GI50: 2.11 µM
  TGI: 4.38 µM

## CC1(C)N=C(N)N=C(N)N1c1ccc(OCCCNC(=O)Nc2cccc(S(=O)(=O)F)c2)c(Cl)c1
KM12 colon
  GI50: 4.53 µM
  TGI: > 100 µM
A549 NSCLC
  GI50: 1.69 µM
  TGI: > 100 µM
HS 578T breast
  GI50: 5.08 µM
  TGI: > 100 µM
EKVX NSCLC
  GI50: 20.3 µM
  TGI: > 100 µM
SK-MEL-5 melanoma
  GI50: 0.715 µM
  TGI: > 100 µM
SF-539 CNS
  GI50: 4.78 µM
  TGI: > 100 µM
LOX IMVI melanoma
  GI50: 2.66 µM
  TGI: > 100 µM
ACHN renal
  GI50: 15.7 µM
  TGI: > 100 µM

## C/C(=N\OCC(O)CNCCSCc1ccccc1)c1ccccc1Cl (stereo not drawn)
KM12 colon
  TGI: 40.2 µM
A549 NSCLC
  TGI: 45.6 µM
HS 578T breast
  TGI: 89.5 µM
EKVX NSCLC
  TGI: 40.6 µM
SK-MEL-5 melanoma
  TGI: 33.4 µM
SF-539 CNS
  TGI: 36.9 µM
LOX IMVI melanoma
  TGI: 36.5 µM
ACHN renal
  TGI: 37.8 µM

## O=C(NCCCl)Nc1cccnc1
KM12 colon
  TGI: 41.5 µM
A549 NSCLC
  TGI: 99.5 µM
EKVX NSCLC
  TGI: 38.3 µM
SK-MEL-5 melanoma
  TGI: > 100 µM
SF-539 CNS
  TGI: > 100 µM
LOX IMVI melanoma
  TGI: 55.3 µM
ACHN renal
  TGI: 27.4 µM

## O=C(C=P(c1ccccc1)(c1ccccc1)c1ccccc1)CCl
KM12 colon
  GI50: 1.94 µM
  TGI: 5.09 µM
A549 NSCLC
  GI50: 2.16 µM
  TGI: 8.14 µM
HS 578T breast
  GI50: 1.53 µM
  TGI: 11 µM
SK-MEL-5 melanoma
  GI50: 1.45 µM
  TGI: 2.83 µM
SF-539 CNS
  GI50: 1.28 µM
  TGI: 2.98 µM
LOX IMVI melanoma
  GI50: 0.353 µM
  TGI: 1.04 µM
ACHN renal
  GI50: 0.569 µM
  TGI: 1.94 µM

## Oc1ccc2ccccc2c1N=Nc1cc(Cl)ccc1Cl
KM12 colon
  TGI: > 50 µM
A549 NSCLC
  TGI: > 50 µM
HS 578T breast
  TGI: 21.4 µM
EKVX NSCLC
  TGI: 20.6 µM
SK-MEL-5 melanoma
  TGI: > 50 µM
ACHN renal
  TGI: 24.7 µM

## CN(C)CCCSc1ccccc1NC1=C(Cl)C(=O)C(Nc2ccccc2SCCCN(C)C)=C(Cl)C1=O
KM12 colon
  GI50: 1.89 µM
  TGI: 4.09 µM
A549 NSCLC
  GI50: 5.43 µM
  TGI: 17 µM
HS 578T breast
  GI50: 3.14 µM
  TGI: 21.4 µM
EKVX NSCLC
  GI50: 1.81 µM
  TGI: 3.38 µM
SK-MEL-5 melanoma
  GI50: 1.83 µM
  TGI: 3.55 µM
SF-539 CNS
  GI50: 1.68 µM
  TGI: 3.1 µM
LOX IMVI melanoma
  GI50: 1.39 µM
  TGI: 2.88 µM

## COc1ccc(C(=NN=C(N)N)c2ccc(OC)cc2)cc1
KM12 colon
  GI50: 2.31 µM
  TGI: 8.41 µM
A549 NSCLC
  GI50: 4.91 µM
  TGI: 18.5 µM
HS 578T breast
  GI50: 1.75 µM
  TGI: 6.93 µM
EKVX NSCLC
  GI50: 4.68 µM
  TGI: 24.7 µM
SK-MEL-5 melanoma
  GI50: 2.25 µM
  TGI: 5.76 µM
LOX IMVI melanoma
  GI50: 2.91 µM
  TGI: 11.4 µM
ACHN renal
  GI50: 3.49 µM
  TGI: 13.3 µM
